Reference: patent US20050137135A1 (priority 2002, published 2005)
Square brackets hold non-standard residues; d marks the D form. Ends that are not written are not given here. Peptide text beside a SMILES is read from it.

target: T1, DPIV (dipeptidyl peptidase IV) (Sus scrofa, UniProt P22411); test: Determination of DPIV resistance by MALDI-TOF mass spectrometry; assay type: in vitro ADME; settings: purified kidney DPIV, 0.04 M Tris buffer pH 7.6, up to 24 h, MALDI-TOF MS; read-out: half life after incubation with DP IV
T1 construct: The hydrolysis of peptide analogues by purified kidney DPIV was studied as described previously [12]; from tissue; host or cells: kidney
Description: (§1) The hydrolysis of peptide analogues by purified kidney DPIV was studied as described previously. […] Samples were removed from the incubation mixture and prepared for MALDI-TOF mass spectrometry, as described in Pauly, […]., Pederson, R. A., and Demuth, H. U.

T1 sequence (P22411 whole entry): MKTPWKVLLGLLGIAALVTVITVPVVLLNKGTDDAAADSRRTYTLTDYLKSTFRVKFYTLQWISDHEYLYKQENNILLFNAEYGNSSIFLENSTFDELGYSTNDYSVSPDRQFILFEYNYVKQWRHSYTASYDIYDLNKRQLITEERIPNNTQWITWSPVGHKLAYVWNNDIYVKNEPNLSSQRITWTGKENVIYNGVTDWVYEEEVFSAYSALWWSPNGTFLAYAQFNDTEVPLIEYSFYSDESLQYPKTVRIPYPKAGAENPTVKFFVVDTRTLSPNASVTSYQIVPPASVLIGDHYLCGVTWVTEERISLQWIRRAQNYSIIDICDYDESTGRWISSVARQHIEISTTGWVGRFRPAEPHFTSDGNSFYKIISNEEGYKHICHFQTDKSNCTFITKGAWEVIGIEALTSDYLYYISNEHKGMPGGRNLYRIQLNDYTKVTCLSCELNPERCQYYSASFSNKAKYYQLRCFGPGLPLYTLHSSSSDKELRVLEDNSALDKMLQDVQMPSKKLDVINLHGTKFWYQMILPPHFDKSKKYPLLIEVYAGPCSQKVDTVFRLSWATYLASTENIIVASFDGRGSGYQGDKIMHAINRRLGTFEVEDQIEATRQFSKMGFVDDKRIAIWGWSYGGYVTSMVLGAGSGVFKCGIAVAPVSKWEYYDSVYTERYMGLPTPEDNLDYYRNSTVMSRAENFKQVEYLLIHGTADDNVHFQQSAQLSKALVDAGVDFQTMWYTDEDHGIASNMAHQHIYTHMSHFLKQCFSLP

Molecule	half-life
CC[C@H](C)[C@H](NC(=O)[C@H](CO)NC(=O)[C@H](Cc1ccc(O)cc1)NC(=O)[C@H](CC(=O)O)NC(=O)[C@H](CO)NC(=O)[C@@H](NC(=O)[C@H](Cc1ccccc1)NC(=O)[C@@H](NC(=O)CNC(=O)[C@@H](CCC(=O)O)NC(=O)[C@H](C)NC(=O)[C@@H](N)Cc1ccc(O)cc1)[C@@H](C)O)[C@@H](C)CC)C(=O)N[C@@H](C)C(=O)N[C@@H](CCSC)C(=O)N[C@@H](CC(=O)O)C(=O)N[C@@H](CCCCN)C(=O)N[C@H](C(=O)N[C@@H](CCCNC(=N)N)C(=O)N[C@@H](CCC(N)=O)C(=O)N[C@@H](CCC(N)=O)C(=O)N[C@@H](CC(=O)O)C(=O)N[C@@H](Cc1ccccc1)C(=O)N[C@H](C(=O)N[C@@H](CC(N)=O)C(=O)N[C@@H](Cc1c[nH]c2ccccc12)C(=O)N[C@@H](CC(C)C)C(=O)N[C@@H](CC(C)C)C(=O)N[C@@H](C)C(=O)N[C@@H](CCC(N)=O)C(=O)N[C@@H](CCCCN)C(N)=O)C(C)C)[C@@H](C)CC [D-Glu^3-GIP1-30] (H-YA[dE]GTFISDYSIAMDKIRQQDFVNWLLAQK-NH2; N-terminus and C-terminus assumed)	0.672 ± 0.08 h
YGEGTFISDYSIAMDKIRQQDFVNWLLAQK-NH2 [Gly^2-GIP1-30a]	2.51 ± 0.455 h
YPEGTF-NH2 [Pro^2-GIP1-6a]	> 0.125 h
YSEGTFISDYSIAMDKIRQQDFVNWLLAQK-NH2 [Ser^2-GIP1-30a]	2.28 ± 0.205 h
YVEGTFISDYSIAMDKIRQQDFVNWLLAQK-NH2 [Val^2-GIP1-30a]	4.97 ± 1.54 h

target: T2, purified kidney DPIV (Sus scrofa, UniProt P22411); test: as above; assay type: in vitro ADME; settings: pH 7.6
T2 construct: The hydrolysis of peptide analogues by purified kidney DPIV was studied as described previously [12]; from tissue; host or cells: kidney
Description: as §1

T2 sequence (P22411 whole entry): as the sequence (P22411 whole entry) above

Molecule	half life after incubation with DP IV
Tyr-Ala-Ψ(CH2NH2)-Glu-Gly-Thr-Phe-Ile-Ser-Asp-Tyr-Ser-Ile-Ala-Met (EGTFISDYSIAM; not fully specified; N-terminal Tyr-Ala reduced bond, C-amide; printed: Glu-Gly-Thr-Phe-Ile-Ser-Asp-Tyr-Ser-Ile-Ala-Met) [YAψ(CH2NH)-GIP3-14a, GIP1-14 analogue with a reduced peptide bond]	stable
Tyr-Ala-ψ(CH2NH)-Glu-Gly-Thr-Phe-Ile-Ser-Asp-Tyr-Ser-Ile-Ala-Met-Asp-Lys-Ile-His-Gln-Gln-Asp-Phe-Val-Asn-Trp-Leu-Leu-Ala-Gln-Lys [YAψ(CH2NH)-GIP3-30a]	stable

same assay, conditions: purified kidney DPIV, 0.04 M Tris buffer pH 7.6, up to 24 h, MALDI-TOF MS

half life after incubation with DP IV	Molecule
stable	YAPGTF-NH2 [Pro3-GIP1-6a]
Not detectable^b	YGEGTF-NH2 [Gly^2-GIP1-6a]
Not detectable	YVEGTF-NH2 [Val^2-GIP1-6a]

Molecule	half life after incubation with DP IV
YAPGTFISDYSIAM [Pro^3-GIP1-14]	stable

same assay, conditions: purified kidney DPIV, 0.04 M Tris buffer pH 7.6, up to 24 h, MALDI-TOF MS; read-out: half life after incubation with DP IV

half-life	Molecule
1.32 ± 0.203 h	YSEGTF-NH2 [Ser^2-GIP1-6a]
